According to patent publication US20230087560A1, “HYDROFLUORETHERS AND METHODS OF USING SAME” (3M INNOVATIVE PROPERTIES COMPANY, priority 2020, published 2023):

Experiments:
[1] = Chemical stability in the presence of TMEDA; assay type: physicochemical; settings: 50° C.
Procedure: (§1) Chemical Stability: Stability of compounds in the presence of the bases triethylamine (TEA), 1,4-diazabicyclo[2.2.2]octane (DABCO), and N,N,N,N-tetramethylethylene diamine (TMEDA) was tested as follows. To a 20 mL vial equipped with a magnetic stir bar were added the exemplary and comparative materials in the following starting amounts: Example 1-0.30 g (1.0 mmol), CE4-0.30 g (1.0 mmol) and CE5-0.30 g (1.0 mmol). FC-770 (0.40 g, 1.0 mmol) was added as an internal standard since it is known to be stable in the presence of the base materials tested herein. To this mixture was added one of: triethylamine (0.10 g, 1.0 mmol), DABCO (0.10 g, 0.89 mmol), or TMEDA (0.12 g, 1.0 mmol). The resultant mixture was stirred at 50° C. for 24 hours. GC-FID analysis was performed at specific time intervals to monitor the remaining hydrofluoroether and comparative materials present in the mixture.

[2] = Chemical stability in the presence of NMP, fluoride ion content; assay type: physicochemical; settings: 50° C., 144 h, aqueous layer
Procedure: Stability of compounds in the presence of N-methylpyrrolidinone (NMP) was tested as follows. To a 20 mL glass vial equipped with a magnetic stir bar was added 0.66 g of NMP (6.7 mmol) and one of the following exemplary or comparative materials in the following starting amounts: Example 1-2.0 g (6.7 mmol); CE4-2.0 g (6.7 mmol); CE5-2.0 g (6.7 mmol), or CE6-2.40 g (6.7 mmol). This mixture was then stirred at 50° C. for 144 h. To the resultant mixture was added H2O (6.0 mL) and the aqueous layer was evaluated for fluoride ion content. The samples were analyzed using an Orion EA 940 meter with an Orion 9609BNWB Fluoride-ISE. Orion Ionplus Fluoride standards were used to calibrate the meter.

[3] = Chemical stability in the presence of DABCO; assay type: physicochemical; settings: 50° C.
Procedure: as §1

[4] = Chemical stability in the presence of triethylamine (TEA); assay type: physicochemical; settings: 50° C.
Procedure: as §1

rats = assay: Toxicity screening study in rats, 4-hour inhalation; assay type: in vivo
Procedure: To a 3-neck flask equipped with a magnetic stir bar and reflux condenser were charged 1,1,1,3,3,4,4,4-octafluoro-2-(trifluoromethyl)butan-2-olate cesium salt (300 g of a 33 wt % solution in diglyme, 237 mmol). The resultant reaction mixture was heated to 70° C. followed by the dropwise addition of iodomethane (17 mL, 273 mmol). The reaction mixture was allowed to stir overnight at the same temperature. After cooling to room temperature, H2O (400 mL) was added and the mixture was transferred to a 2 L separatory funnel. The bottom, fluorochemical layer was then separated and analyzed by GC-FID indicating a 58% yield of the title compound. Distillation afforded the desired 1,1,1,2,2,4,4,4-octafluoro-3-methoxy-3-(trifluoromethyl)butane (77° C., 740 mm/Hg, 32.1 g, 45% isolated yield) as a colorless liquid. The identity of the purified composition was confirmed by GC-MS analysis.

[5] = Specific heat capacity (Cp) by DSC; assay type: physicochemical
Procedure: Specific heat capacity (Cp): Cp was measured using a TA Instruments Model Q2000 DSC (Differential Scanning Calorimeter) instrument. A sapphire standard was run before and after the samples and the average of the measured sapphire heat capacity vs. the theoretical heat capacity was used to correct the measured heat capacity of the sample.

[6] = Pour point, determined visually; assay type: physicochemical
Procedure: One to two milliliters of the sample were placed in a vial and cooled in a bath until it solidified. The sample was then allowed to warm slowly in the bath and observed every 3-5° C.

[7] = Kinematic viscosity, Schott-Ubbelohde viscometers; assay type: physicochemical
Procedure: Kinematic viscosity: Kinematic viscosity was measured using Schott-Ubbelohde Viscometers (glass capillary viscometers). The viscometers were timed using a viscometer timer available under the trade designation AVS-350 from SI Analytics, College Station, Tex., USA. The viscometer measurement stand and glass viscometer were immersed in a temperature-controlled liquid bath filled with NOVEC 7500 fluid available from 3M Company, Maplewood, Minn., USA. The temperature-controlled liquid bath (available from Lawler Manufacturing Corporation, Edison, N.J., USA), was fitted with a copper tubing coil for liquid nitrogen cooling with fine temperature control provided by the bath's electronic temperature control heater. The fluid was mechanically stirred to provide uniform […] temperature in the bath. The bath controlled the temperature within +0.1° C., measured by a built-in RTD temperature sensor. The sample liquid was added to the viscometer between the two fill lines etched on the viscometer. The viscometer timer automatically pumped the sample fluid above the upper timing mark, then released the fluid and measured the efflux times between the upper and lower timing marks. The fluid meniscus was detected by optical sensors as it passed each timing mark. The sample was drawn up and measured repeatedly; results are provided as averages of multiple determinations. The glass viscometers were calibrated using certified kinematic viscosity standard fluids available from Cannon Instrument Company, State College, Pa., USA, to obtain a calibration constant (cSt/sec) for each viscometer. Kinematic viscosity in centiStokes (cSt) was calculated as the average efflux time (sec) times the viscometer calibration constant (cSt/sec).

| Compound | Mole % of Starting Material ([1]; 0 hr) [Mole %] | Mole % of Starting Material ([1]; 16 hr) [Mole %] | Mole % of Starting Material ([1]; 24 hr) [Mole %] | Fluoride ion content [2] [ppm] | Mole % of Starting Material ([3]; 0 hr) [Mole %] | Mole % of Starting Material ([3]; 16 hr) [Mole %] | Mole % of Starting Material ([3]; 24 hr) [Mole %] | Mole % of Starting Material ([4]; 0 hr) [Mole %] | Mole % of Starting Material ([4]; 16 hr) [Mole %] | Mole % of Starting Material ([4]; 24 hr) [Mole %] | 4-hour inhalation LC50 (rats) | Specific Heat Capacity [5] [J/g · K] | pour point [6] [°C] | Kinematic Viscosity ([7]; 0.0 ° C.) [cSt] | Kinematic Viscosity ([7]; −10.0 ° C.) [cSt] | Kinematic Viscosity ([7]; −20.0 ° C.) [cSt] | Kinematic Viscosity ([7]; −30.0 ° C.) [cSt] | Kinematic Viscosity ([7]; −40.0 ° C.) [cSt] |
| --- | --- | --- | --- | --- | --- | --- | --- | --- | --- | --- | --- | --- | --- | --- | --- | --- | --- | --- |
| COC(F)(C(F)(F)F)C(F)(C(F)(F)F)C(F)(F)F (centres unmarked) [CE4, 1,1,1,2,3,4,4,4-octafluoro-2-methoxy-3-(trifluoromethyl)butane] | 100 | 53.3 | 53.3 | 388.8 | 100 | 66.7 | 56.7 | 100 | 100 | 96.7 |  |  |  |  |  |  |  |  |
| COC(F)(F)C(F)(C(F)(F)F)C(F)(F)C(F)(F)F (centres unmarked) [CE5, 2-(difluoro(methoxy)methyl)-1,1,1,2,3,3,4,4,4-nonafluorobutane] | 100 | 36.7 | 36.7 | 657.8 | 100 | 46.7 | 43.3 | 100 | 100 | 86.7 |  |  |  |  |  |  |  |  |
| COC(C(F)(F)F)(C(F)(F)F)C(F)(F)C(F)(F)F [Example 1, 1,1,1,2,2,4,4,4-octafluoro-3-methoxy-3-(trifluoromethyl)butane] | 100 | 100 | 100 | 15.1 | 100 | 100 | 100 | 100 | 100 | 100 | > 1,840 ppm |  |  |  |  |  |  |  |
| COC(C(F)(F)C(F)(F)F)(C(F)(F)C(F)(F)F)C(F)(F)C(F)(F)F [Example 3, 1,1,1,2,2,4,4,5,5,5-decafluoro-3-methoxy-3-(1,1,2,2,2-pentafluoroethyl)pentane] |  |  |  |  |  |  |  |  |  |  |  | 1.16 | −62 | 0.97 | 1.65 | 2.15 | 2.88 | 5.19 |
